Assay results reported in patent US7671054B1, “Reverse-turn mimetics and method relating thereto” (Choongwae Pharma Corporation, priority 2001, dated 2010).

system: TCF4/β-catenin transcription (TOPFlash) in SW480 cells; assay: Reporter gene assay (TOPFlash luciferase); assay type: cell-based; settings: Homo sapiens, SW480, Table 4; Reporter gene assay as described in Example 6; read-out: IC50
Procedure: SW480 cells were transfected with the usage of Superfect™ transfect reagent (Qiagen, 301307). Cells were trypsinized briefly 1 day before transfection and plated on 6 well plate (5×10^5 cells/well) so that they were 50-80% confluent on the day of transfection.
Four microgram (TOPFlash) and one microgram (pRL-null) of DNAs were diluted in 150 μl of serum-free medium, and 30 μl of Superfect™ transfect reagent was added. The DNA-Superfect mixture was incubated at room temperature for 15 min, and then, 1 ml of 10% FBS DMEM was added to this complex for an additional 3 hours of incubation. While complexes were forming, cells were washed with PBS twice without antibiotics.
The DNA-Superfect™ transfect reagent complexes were applied to the cells before incubating at 37° C. at 5% CO2 for 3 hours. After incubation, recovery medium with 10% FBS was added to bring the final volume to 1.18 ml. After 3 hours incubation, the cells were harvested and reseeded to 96 well plate (3×10^4 cells/well). After overnight incubation at 37° C. at 5% CO2, the cells were treated with Compound A for 24 hours. Finally, the activity was checked by means of luciferase assay (Promega, E1960).

Row | IC50 [µM] | SMILES
1 | 2.6 ± 0.2 | C#CCn1cc2cccc(CN3C[C@H]4N(C(=O)CN(C)N4C(=O)NCc4ccccc4)[C@@H](Cc4ccc(O)cc4)C3=O)c2n1 [Compound 106]
2 | 7.5 | CN1CC(=O)N2[C@@H](Cc3ccc(O)cc3)C(=O)N(Cc3ccc(Cl)cc3)C[C@@H]2N1C(=O)NCc1ccccc1 [Compound 28]
3 | 7.9 ± 2 | C[C@H]1[C@H]2N(C(=O)CN(C)N2C(=O)NCc2ccccc2)[C@@H](Cc2ccc(O)cc2)C(=O)N1Cc1ccc(Cl)c(N(C)C)c1 [Compound 80]
4 | 1.1 ± 0.3 | C=CCc1nc2c(CN3C[C@H]4N(C(=O)CN(CC=C)N4C(=O)NCc4ccccc4)[C@@H](Cc4ccc(O)cc4)C3=O)cccc2s1 [Compound 220]
5 | 7.6 ± 0.6 | CN1CC(=O)N2[C@@H](Cc3ccc(O)cc3)C(=O)N(Cc3cccc4cnn(CCN5CCOCC5)c34)C[C@@H]2N1C(=O)NCc1ccccc1 [Compound 94]
6 | 11.7 ± 1 | CCN1CC(=O)N2[C@@H](Cc3ccc(O)cc3)C(=O)N(Cc3cccc(N4CCOCC4)c3)C[C@@H]2N1C(=O)NCc1ccccc1 [Compound 123]
7 | 3 ± 0.4 | CCN1CC(=O)N2[C@@H](Cc3ccc(O)cc3)C(=O)N(Cc3cccc4cccnc34)C[C@@H]2N1C(=O)NCc1ccccc1 [Compound 121]
8 | 18 ± 5.1 | C=CCN1CC(=O)N2[C@@H](Cc3ccc(O)cc3)C(=O)N(Cc3ccc(OC)cc3)C[C@@H]2N1C(=O)NCc1ccc(Cl)c(Cl)c1 [Compound 215]
9 | 1.3 ± 0.1 | C=CCN1CC(=O)N2[C@@H](Cc3ccc(O)cc3)C(=O)N(Cc3ccc(Cl)c(Cl)c3)C[C@@H]2N1C(=O)NCc1ccccc1 [Compound 180]
10 | 1.5 ± 0.5 | C=CCN1CC(=O)N2C(Cc3ccc(O)cc3)C(=O)N(Cc3ccc(F)cc3F)CC2N1C(=O)NCc1ccccc1 (stereo not drawn) [Compound 170]
11 | 25.8 | C[C@H](c1cccc(N(C)C)c1)N1C[C@H]2N(C(=O)CN(C)N2C(=O)NCc2ccccc2)[C@@H](Cc2ccc(O)cc2)C1=O [Compound 61]
12 | 22.3 ± 2.3 | C[C@H](c1ccc(F)cc1F)N1CC2N(C(=O)CN(C)N2C(=O)NCc2ccccc2)[C@@H](Cc2ccc(O)cc2)C1=O (stereo partly drawn) [Compound 195]
13 | 11.8 | CN1CC(=O)N2[C@@H](Cc3ccc(O)cc3)C(=O)N(Cc3cccc4ccccc34)C[C@@H]2N1C(=O)Nc1ccc(C(F)(F)F)cc1 [Compound 4]
14 | 0.6 ± 0.04 | C=CCN1CC(=O)N2[C@@H](Cc3ccc(O)cc3)C(=O)N(Cc3cccc4scnc34)C[C@@H]2N1C(=O)NCc1ccccc1 [Compound 182]
15 | 11.4 | CN1CC(=O)N2[C@@H](Cc3ccc(O)cc3)C(=O)N(Cc3cccc4ccccc34)C[C@@H]2N1C(=S)NCc1ccccc1 [Compound 35]
16 | 1.3 ± 0.3 | C=CCN1CC(=O)N2C(CN(Cc3cccc(N(C)C)c3)C(=O)[C@@H]2Cc2ccc(O)cc2)N1C(=O)NCc1ccccc1 (single isomer, unassigned) [Compound 192]
17 | 0.4 ± 0.1 | C=CCN1CC(=O)N2[C@@H](Cc3ccc(O)cc3)C(=O)N(Cc3cccc4cccnc34)C[C@@H]2N1C(=O)NCc1ccccc1 [Compound 128]
18 | 14.3 | CN1CC(=O)N2C(CN(Cc3ccccc3Cl)C(=O)[C@@H]2Cc2ccc(O)cc2)N1C(=O)NCc1ccccc1 (stereo partly drawn) [Compound 17]
19 | 6.7 | CN1CC(=O)N2C(CN(Cc3cccc(F)c3)C(=O)[C@@H]2Cc2ccc(O)cc2)N1C(=O)NCc1ccccc1 (stereo partly drawn) [Compound 9]
20 | 3.6 ± 0.3 | C=CCN1CC(=O)N2[C@@H](Cc3ccc(O)c(F)c3)C(=O)N(Cc3ccc(F)cc3)C[C@@H]2N1C(=O)NCc1ccccc1 [Compound 186]
21 | 7.2 ± 2.5 | CN1CC(=O)N2[C@@H](Cc3ccc(O)cc3)C(=O)N(Cc3ccc4ncsc4c3)C[C@@H]2N1C(=O)NCc1ccccc1 [Compound 77]
22 | 27.4 ± 2.8 | C[C@@H](c1ccc(Cl)c2cccnc12)N1CC2N(C(=O)CN(C)N2C(=O)NCc2ccccc2)[C@@H](Cc2ccc(O)cc2)C1=O (stereo partly drawn) [Compound 196]
23 | 4.2 | CN1CC(=O)N2C(CN(Cc3cccc(C(F)(F)F)c3)C(=O)[C@@H]2Cc2ccc(O)cc2)N1C(=O)NCc1ccccc1 (stereo partly drawn) [Compound 15]
24 | 31 ± 6.4 | C=C(C)CN1CC(=O)N2[C@@H](Cc3ccc(O)cc3)C(=O)N(Cc3ccc(Cl)c4cccnc34)C[C@@H]2N1C(=O)NCc1ccccc1 [Compound 149]
25 | 1.8 ± 0.3 | C#CCN1CC(=O)N2[C@@H](Cc3ccc(O)cc3)C(=O)N(Cc3ccc4ncsc4c3)C[C@@H]2N1C(=O)NCc1ccccc1 [Compound 141]
26 | 23.6 ± 5.6 | CC(C)N(C)c1cc(CN2C[C@H]3N(C(=O)CN(C)N3C(=O)NCc3ccccc3)[C@@H](Cc3ccc(O)cc3)C2=O)ccc1Cl [Compound 54]

Row | IC50 [µM] | SMILES
27 | 10.6 ± 0.5 | CCCN1CC(=O)N2[C@@H](Cc3ccc(NC=O)cc3)C(=O)N(Cc3ccc(F)cc3F)C[C@@H]2N1C(=O)NCc1ccccc1 [Compound 160]
28 | 1.9 ± 0.1 | C=CCN1CC(=O)N2[C@@H](Cc3ccc(O)cc3)C(=O)N(Cc3cccc4c3OCCO4)C[C@@H]2N1C(=O)NCc1ccc(Cl)c(Cl)c1 [Compound 204]
29 | 10.9 | Cc1cccc(CN2C[C@H]3N(C(=O)CN(C)N3C(=O)NCc3ccccc3)[C@@H](Cc3ccc(O)cc3)C2=O)c1N(C)C [Compound 48]
30 | 4.3 ± 0.9 | C[C@H]1[C@H]2N(C(=O)CN(C)N2C(=O)NCc2ccccc2)[C@@H](Cc2ccc(O)cc2)C(=O)N1Cc1cccc(N(C)C)c1 [Compound 78]
31 | 8.6 ± 0.4 | CN1CC(=O)N2[C@@H](Cc3ccc(O)cc3)C(=O)N(Cc3ccc(F)cc3F)C[C@@H]2N1C(=O)NCc1ccc(F)cc1 [Compound 200]
32 | 34.4 ± 4.9 | CN(Cc1cccc(CN2C[C@H]3N(C(=O)CN(C)N3C(=O)NCc3ccccc3)[C@@H](Cc3ccc(O)cc3)C2=O)c1)C1CCOCC1 [Compound 120]
33 | 2.7 ± 0.3 | C#CCNC(=O)c1ccccc1Cn1ncc2c(CN3C[C@H]4N(C(=O)CN(C)N4C(=O)NCc4ccccc4)[C@@H](Cc4ccc(O)cc4)C3=O)cccc21 [Compound 107]
34 | 9.9 ± 2.6 | CN1CC(=O)N2[C@@H](Cc3ccc(O)cc3)C(=O)N(Cc3ccc4cnn(Cc5ccccc5N)c4c3)C[C@@H]2N1C(=O)NCc1ccccc1 [Compound 86]
35 | 6.8 ± 1.3 | C#CCn1ncc2ccc(CN3C[C@H]4N(C(=O)CN(C)N4C(=O)NCc4ccccc4)[C@@H](Cc4ccc(O)cc4)C3=O)cc21 [Compound 93]
36 | 2.1 ± 0.2 | CN1CC(=O)N2[C@@H](Cc3ccc(O)cc3)C(=O)N(Cc3cccc4cnn(Cc5ccccc5[N+](=O)[O-])c34)C[C@@H]2N1C(=O)NCc1ccccc1 [Compound 74]
37 | 6.8 | CC(C)N(C)c1cccc([C@@H](C)N2C[C@H]3N(C(=O)CN(C)N3C(=O)NCc3ccccc3)[C@@H](Cc3ccc(O)cc3)C2=O)c1 [Compound 67]
38 | 4.1 ± 0.8 | C#CCN1CC(=O)N2[C@@H](Cc3ccc(O)cc3)C(=O)N(Cc3cccc4c3cnn4CCN3CCOCC3)C[C@@H]2N1C(=O)NCc1ccccc1 [Compound 112]
39 | 3.9 | CN(Cc1ccccc1N)c1cccc(CN2C[C@H]3N(C(=O)CN(C)N3C(=O)NCc3ccccc3)[C@@H](Cc3ccc(O)cc3)C2=O)c1 [Compound 90]
40 | 6.4 | CN1CC(=O)N2C(CN(Cc3ccc(F)cc3F)C(=O)[C@@H]2Cc2ccc(O)cc2)N1C(=O)NCc1ccccc1 (stereo partly drawn) [Compound 13]
41 | 5.4 ± 0.5 | C=CCN1CC(=O)N2[C@@H](Cc3ccc(O)cc3)C(=O)N(Cc3ccc(F)cc3F)C[C@@H]2N1C(=O)NCc1ccc(F)cc1 [Compound 175]
42 | 6.9 ± 0.6 | CN1CC(=O)N2[C@@H](Cc3ccc(O)cc3)C(=O)N(Cc3cccc(N4CCOCC4)c3)C[C@@H]2N1C(=O)NCc1ccccc1 [Compound 117]
43 | 6.4 ± 0.4 | CCCN1CC(=O)N2[C@@H](Cc3ccc(O)cc3)C(=O)N(Cc3cccc(N4CCOCC4)c3)C[C@@H]2N1C(=O)NCc1ccccc1 [Compound 124]
44 | 11.5 | CN1CC(=O)N2C(CN(Cc3ccc(Cl)cc3Cl)C(=O)[C@@H]2Cc2ccc(O)cc2)N1C(=O)NCc1ccccc1 (stereo partly drawn) [Compound 19]
45 | 2.3 ± 0.5 | C=CCN1CC(=O)N2[C@@H](Cc3ccc(O)cc3)C(=O)N(Cc3cccc(OCCN4CCOCC4)c3)C[C@@H]2N1C(=O)NCc1ccccc1 [Compound 132]
46 | 13 | CN1CC(=O)N2[C@@H](Cc3ccc(O)cc3)C(=O)N(Cc3cccc4ncccc34)C[C@@H]2N1C(=O)NCc1ccccc1 [Compound 33]
47 | 3 | CN1CC(=O)N2[C@@H](Cc3ccc(O)cc3)C(=O)N(Cc3ccc(F)c4ccccc34)C[C@@H]2N1C(=O)NCc1ccccc1 [Compound 25]
48 | 4.1 ± 0.5 | CN1CC(=O)N2[C@@H](Cc3ccc(O)cc3)C(=O)N(Cc3cccc(N4CCCC4)c3)C[C@@H]2N1C(=O)NCc1ccccc1 [Compound 63]
49 | 13.6 | Cc1ccc([C@@H](C)N2C[C@H]3N(C(=O)CN(C)N3C(=O)NCc3ccccc3)[C@@H](Cc3ccc(O)cc3)C2=O)cc1 [Compound 41]
50 | 4.4 ± 0.2 | C=CCN1CC(=O)N2[C@@H](CN([C@H](C)c3ccc(F)cc3F)C(=O)[C@@H]2Cc2ccc(O)cc2)N1C(=O)NCc1ccccc1 [Compound 188]
51 | 1.8 ± 0.6 | C=CCN1CC(=O)N2[C@@H](Cc3ccc(O)cc3)C(=O)N(Cc3cc(F)c(F)cc3N(C)C)C[C@@H]2N1C(=O)NCc1ccccc1 [Compound 162]
52 | 10.3 ± 1.5 | CCCN1CC(=O)N2[C@@H](Cc3ccc(O)cc3)C(=O)N(Cc3ccc(Cl)c(N(C)C)c3)C[C@@H]2N1C(=O)NCc1ccccc1 [Compound 126]

Row | SMILES | IC50 [µM]
53 | C=CCN1CC(=O)N2[C@@H](Cc3ccc(O)cc3)C(=O)N(Cc3ccc(F)cc3F)C[C@@H]2N1C(=O)NCc1ccccc1 [Compound 143] | 1.3 ± 0.2
54 | CCOP(=O)(CC(=O)Nc1ccc(C[C@H]2C(=O)N(Cc3cccc4ccccc34)C[C@H]3N2C(=O)CN(C)N3C(=O)NCc2ccccc2)cc1)OCC [Compound 84] | 46.7 ± 6.7
